Assay results reported in US20260355329A1, “PRODRUG LINKER COMPOSITIONS AND METHODS OF USE” (priority 2023, published 2026).
Converted amounts (≈) assume the structure as drawn. “Also recorded” adds a separate entry of the source. Peptide text beside a SMILES is read from it. * marks the point of attachment. ACC = NC(=O)Cc1cc(=O)oc2cc(N*)ccc12

Tests used:
[1] = Release of ACC from Ac-Linker-ACC conjugates in mouse serum (serum stability); type: in vitro ADME; conditions: role: substrate; 50% mouse serum, 8 h
Protocol: (§1) With the hit candidate in-hand, scarless cleavage was assessed with the turn-on fluorescent probe 7-amino-4-carbamoylmethylcoumarin (ACC), which only fluoresces when the ACC fluorophore is cleaved without an amino acid scar. To discover a scarless linker for LEHELGN (SEQ ID NO: 7), the following ACC conjugates (FIG. 9) were synthesized and cleavage rates were compared in 50% mouse serum and A. baumannii periplasmic extracts (FIGS. 10 and 11): Ac-LEHELGN-ACC (SEQ ID NO: 8), Ac-LEHELG-ACC (SEQ ID NO: 9), Ac-LEHEL-ACC (SEQ ID NO: 10), Ac-LEHE-ACC (SEQ ID NO: 11), Ac-LEH-ACC (SEQ ID NO: 12), Ac-LE-ACC, and Ac-L-ACC (note: Ac=acetyl).
To determine how each amino acid contributed to the selectivity of linker LEHELG (SEQ ID NO: 1), an ala scan was conducted. […] The cleavage rates of ala-substituted variants (P1-P6) were determined in mouse serum and in the periplasmic extracts from six strains of A. baumannii (FIG. 12).
Periplasmic extracts and mouse serum were not diluted prior to use in fluorescence assays and were allowed to undergo only one freeze-thaw cycle prior to use. […] The plate was sealed with a transparent polyolefin silicone film (Thermofisher™ Nuc™ Sealing Tape, 12-565-513) and placed in a plate reader at 37 °C with shaking at 225 rpm for 8 hours. […]

[2] = test system: A. baumannii periplasmic extract; test: Release of ACC from Ac-Linker-ACC conjugates in A. baumannii periplasmic extract; type: biochemical; conditions: role: substrate, 8 h
Protocol: as §1
To determine how each amino acid contributed to the selectivity of linker LEHELG (SEQ ID NO: 1), an ala scan was conducted. Each position of the LEHELG (SEQ ID NO: 1) linker was substituted with a single alanine, the simplest amino acid containing a stereocenter, to create six variants. The P1 position is the amino acid directly adjacent to the cleavage site, which is conjugated to the ACC turn-on fluorophore. The cleavage rates of ala-substituted variants (P1-P6) were determined in mouse serum and in the periplasmic extracts from six strains of A. baumannii (FIG. 12). […]
Periplasmic extracts and mouse serum were not diluted prior to use in fluorescence assays and were allowed to undergo only one freeze-thaw cycle prior to use. […]

[3] = test system: HL60 cells; test: Cell viability assay (MTT) in HL60 cells; type: cell-based; conditions: Homo sapiens, HL-60, 24 h, 0.07-10 μM, FIG. 14
Protocol: Cell Culture: HL-60 cells were cultured at 37 °C in a 5% CO2 atmosphere. The cells were grown in Iscove's Modified Dulbecco's Medium, supplemented with 20% fetal bovine serum (FBS) and 0.1% penicillin-streptomycin. Media was replaced every other day until cells reached the desired confluency.
Viability Assay: HL-60 cells (4×10^3) were seeded in a 96-well plate in cell culture media (100 μL) for 24 hours at the atmosphere stated above (5% CO2). After incubation, the cells were treated with 10 μL of vehicle or drug (0.07-10 μM, n=6) for 24 hours at 37 °C. Cell viability was assessed using MTT. MTT media (30 μL, 5 mg/mL) was added to each well for 2 hours and plate was centrifuged at 500×g for 5 minutes after, followed by media aspiration. The formazan crystals left were solubilized in DMSO and absorbance (540 nm) was measured using a microplate reader (SpectraMax M5). Data obtained was normalized to the vehicle to generate final values. The graph plotted in FIG. 14 is depicted as the mean±SEM vs. compound concentration.

[4] = test system: A baumannii WC487; test: MIC, broth microdilution; type: cell-based; conditions: Acinetobacter baumannii, MH-II broth, 16 h, 37 °C, dipyridyl 200 μM for siderophore conjugates
From the text: (§2) For full conjugate synthesis, the HMM siderophore (see FIG. 3) was chosen due to its ability to actively transport antibiotics into diverse bacteria. Solithromycin was chosen as a warhead to determine the quality of the cleavable linker in bacteria and to provide insight into the ability of the conjugate to actively transport through membranes. Solithromycin is a broad-spectrum antibiotic (G^+ and […]), and conjugates with this warhead require cleavage for activity, except in cases where the conjugate is actively transported to the cytoplasm, where the intact conjugate engages the target ribosome. When the minimum inhibitory concentration (MIC, minimum amount of drug to inhibit growth) of solithromycin equals the MIC of its cleavable L-linker conjugate, it indicates quantitative drug release, assuming the non-cleavable D-linker conjugate is not active (Table 1). D-linkers are not cleaved by most proteases.
(§3) Broth and Agar Preparation: Mueller-Hinton II (MH-II, cation-adjusted) broth was prepared from solid MH-II (22 g) and MilliQ H2O (1 L), which was autoclaved in a presterilized 1-L glass bottle. The autoclaved MH-II media contained dipyridyl (DP, 200 μM) for MIC assays involving siderophore conjugates. MH-II agar plates were prepared from autoclaved MH-II (22 g), Bacto agar (17 g), and MilliQ water (1 L). The bacterial strains were obtained from glycerol stocks.
(§4) Bacteria Culture Preparation: Bacteria were streaked on MH-II agar plates from glycerol stocks. The streaked plates were placed in an incubator at 37 °C without shaking for 18-hours. A sterilized pipet tip was gently touched on the surface of a single colony and added to autoclaved MH-II broth (5 mL) in a sterilized 14-mL culture tube. The cultures were incubated for 18 hours at 37 °C with shaking at 215 rpm. The cultures were diluted 200-fold into autoclaved MH-II broth (4 mL) and incubated at 37 °C with shaking at 215 rpm for 3-5 hours, or until an OD 600 of 0.5 was achieved. An aliquot of the culture (1 mL) was transferred to a sterilized culture tube and diluted with filter-sterilized PBS (~7 mL) until an OD600 of 0.13-0.15 was achieved. An aliquot ([…]) of the cultures was then transferred into MH-II media (15-mL) to achieve a concentration of 1×10^5 cells/mL. The diluted cultures (90 μL/well) were then added to substrate (10 μL at the following concentrations: 640 μg/mL, 320 μg/mL, 160 μg/mL, 80 μg/mL, 40 μg/mL, 20 μg/mL, 10 μg/mL, and 0 μg/mL in sterilized 96-well plates to achieve a final substrate concentration of 64 μg/mL, 32 μg/mL, 16 μg/mL, 8 μg/mL, 4 μg/mL, 2 μg/mL, 1 μg/mL, and 0 μg/mL. The 96-well plates were then sealed with sterilized gas-permeable covers. The plates were incubated at 37 °C with shaking at 215 rpm for 16 hours. Each well condition was prepared in triplicate, and each MIC assay was repeated on a different day. The turbidity of each well was examined visually and the MIC was counted as the lowest concentration that lacked turbidity.

[5] = test system: A. baumannii 5075; test: MIC, broth microdilution; type: cell-based; conditions: Acinetobacter baumannii, MH-II broth, 16 h, 37 °C, dipyridyl 200 μM for siderophore conjugates
From the text: as §2, §3, §4

[6] = test system: E. aerogenes ATCC 13048; test: MIC, broth microdilution; type: cell-based; conditions: Klebsiella aerogenes, ATCC13048, MH-II broth, 16 h, 37 °C, dipyridyl 200 μM for siderophore conjugates
From the text: as §2, §3, §4

[7] = test system: E. coli DCO; test: MIC, broth microdilution; type: cell-based; conditions: Escherichia coli, MH-II broth, 16 h, 37 °C, dipyridyl 200 μM for siderophore conjugates
From the text: as §2, §3, §4

[8] = test system: E. coli K12 MG1655; test: MIC, broth microdilution; type: cell-based; conditions: Escherichia coli, MH-II broth, 16 h, 37 °C, dipyridyl 200 μM for siderophore conjugates
From the text: as §2, §3, §4

[9] = test system: K. pneumoniae KPPR1; test: MIC, broth microdilution; type: cell-based; conditions: Klebsiella pneumoniae, MH-II broth, 16 h, 37 °C, dipyridyl 200 μM for siderophore conjugates
From the text: as §2, §3, §4

[10] = test system: K. pneumoniae MGH 78578; test: MIC, broth microdilution; type: cell-based; conditions: Klebsiella pneumoniae, MGH78578, MH-II broth, 16 h, 37 °C, dipyridyl 200 μM for siderophore conjugates
From the text: as §2, §3, §4

[11] = test system: S. enterica 14028s; test: MIC, broth microdilution; type: cell-based; conditions: Salmonella enterica, MH-II broth, 16 h, 37 °C, dipyridyl 200 μM for siderophore conjugates
From the text: as §2, §3, §4

[12] = test system: S. typhi ATCC 700931; test: MIC, broth microdilution; type: cell-based; conditions: Salmonella enterica, MH-II broth, 16 h, 37 °C, dipyridyl 200 μM for siderophore conjugates
From the text: as §2, §3, §4

In the case of `CC(=O)N[C@@H](CC(C)C)C(=O)N[C@@H](CCC(=O)O)C(=O)N[C@@H](C)C(=O)N[C@@H](CCC(=O)O)C(=O)N[C@@H](CC(C)C)C(=O)NCC(=O)Nc1ccc2c(CC(N)=O)cc(=O)oc2c1` [Ac-LEAELG-ACC, Ac-LEAELG(SEQ ID NO: 3)-ACC] (Ac-LEAELG-{ACC}), the “stability in serum / release of ACC in serum (in words)” value [1] is reported as “did not show a significant loss of serum stability relative to the parent peptide” and the “cleavage rate / release of ACC in periplasmic extract (in words)” value [2] is reported as “dramatically enhanced the cleavage rates in periplasmic extracts”.
With `CC(=O)N[C@@H](CC(C)C)C(=O)N[C@@H](CCC(=O)O)C(=O)N[C@@H](Cc1c[nH]cn1)C(=O)N[C@@H](CCC(=O)O)C(=O)N[C@@H](CC(C)C)C(=O)NCC(=O)Nc1ccc2c(CC(N)=O)cc(=O)oc2c1` [Ac-LEHELG-ACC, Ac-LEHELG(SEQ ID NO: 63)-ACC] (Ac-LEHELG-{ACC}) the “stability in serum / release of ACC in serum (in words)” value [1] was “Minimal release of ACC; also recorded: highest stability in mouse serum compared to all ala-substituted variants” and the “cleavage rate / release of ACC in periplasmic extract (in words)” value [2] was “cleaving rapidly”.
With `CO[C@@]12[C@H](COC(N)=O)C3=C(C(=O)C(C)=C(N)C3=O)N1C[C@@H]1N[C@@H]12` [mitomycin C, reference compound] the EC50 [3] was 1000 nM.
`CC[C@H]1OC(=O)[C@@](C)(F)C(=O)[C@H](C)[C@@H](O[C@@H]2O[C@H](C)C[C@H](N(C)C)[C@H]2O)[C@](C)(OC)C[C@@H](C)C(=O)[C@H](C)[C@H]2N(CCCCn3cc(-c4cccc(N)c4)nn3)C(=O)O[C@]12C` [solithromycin] gave an MIC [4] of 4 µM (≈ 3.38 µg/mL), an MIC [5] of 8 µM (≈ 6.76 µg/mL) and an MIC [6] of 8 µM (≈ 6.76 µg/mL). The MIC [7] was < 1 µM, the MIC [8] was < 1 µM and the MIC [9] was 4 µM (≈ 3.38 µg/mL). For the same molecule, the MIC [10] was 4 µM (≈ 3.38 µg/mL), the MIC [11] was 8 µM (≈ 6.76 µg/mL) and the MIC [12] was 8 µM (≈ 6.76 µg/mL).
